Results as given in PMC12549899 (Nature Communications, 2025).
Substitutions are numbered along the chain they refer to.

Tests used:
[1] = biological target: T1, DrOTOP1 mutants targeting the C-domain pocket (Danio rerio, UniProt Q7ZWK8, G346F); assay: Whole-cell patch-clamp, inhibition of acid-evoked currents, other DrOTOP1 C-domain pocket mutants (e.g. G346F, Y422F, L531F, I565W/G346F; Supplementary Fig. 5); assay type: cell-based, zebrafish (Danio rerio); conditions: 100 µM; DrOTOP1 G346F; compared with WT
T1 construct: A previously generated codon-optimized full-length DrOTOP1[8]; (UniProt: Q7ZWK8) construct; expressed in transfected cells; host or cells: HEK-293 (CRL-1573, ATCC)
T1 sequence (Q7ZWK8 1-586 G346F): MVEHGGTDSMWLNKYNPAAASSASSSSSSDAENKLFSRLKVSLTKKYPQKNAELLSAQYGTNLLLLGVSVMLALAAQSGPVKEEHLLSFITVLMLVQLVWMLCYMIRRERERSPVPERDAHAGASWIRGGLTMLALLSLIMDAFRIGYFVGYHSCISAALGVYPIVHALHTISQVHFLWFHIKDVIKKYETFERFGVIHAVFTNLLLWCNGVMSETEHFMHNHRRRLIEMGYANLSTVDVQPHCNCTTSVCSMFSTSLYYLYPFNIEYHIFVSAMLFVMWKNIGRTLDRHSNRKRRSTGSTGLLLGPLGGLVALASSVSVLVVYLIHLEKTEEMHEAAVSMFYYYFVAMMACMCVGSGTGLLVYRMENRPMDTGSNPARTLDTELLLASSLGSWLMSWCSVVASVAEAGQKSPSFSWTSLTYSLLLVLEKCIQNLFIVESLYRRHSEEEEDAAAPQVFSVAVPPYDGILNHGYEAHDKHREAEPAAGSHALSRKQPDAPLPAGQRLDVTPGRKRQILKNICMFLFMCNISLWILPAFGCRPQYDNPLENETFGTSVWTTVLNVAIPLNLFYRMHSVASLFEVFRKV
Description: (§1) To experimentally verify whether C11 and C2.2 bind in the C-domain pocket as predicted, we used their docked poses to guide mutagenesis. The predicted interactions for C11 and C2.2 include π-stacking with F342 and Y422, potential H-bonding with Q542, N568, and R572 (Fig. 2J, K and Supplementary Fig. 5A), and hydrophobic packing. We generated single-residue mutants of these and other residues in DrOTOP1 that were expected to disrupt specific molecular interactions or to introduce a bulky tryptophan residue (W) to produce steric hindrance.
(§2) We next tested a subset of these mutants for sensitivity to C2.2, focusing on those that could occlude the C-domain pocket. […]
(§3) Whole-cell patch-clamp recording was performed as previously described[6],[22],[25]. Recordings were made with an Axopatch 200B amplifier, digitized with a Digidata 1322a 16-bit data acquisition system, acquired with pClamp 8.2 and analyzed with Clampfit 10 (Molecular Devices). […]
(§4) All data are presented as mean ± SEM unless otherwise noted, and each data point represents an independent replicant. Inhibition of compounds was quantified as ((I2peak-I1)/(I2peak))*100, where I1 is the current immediately before wash-off and I2peak is the maximum recovered current (Supplementary Fig. 2). Hill coefficients were determined by the following equation: Y = Bmax*X^h/(Kd^h + X^h). […]

[2] = biological target: T2, DrOTOP1 mutants targeting the C-domain pocket (Danio rerio, UniProt Q7ZWK8, G346F/I565W); assay: as above; assay type: cell-based, zebrafish (Danio rerio); conditions: DrOTOP1 I565W / G346F; Supp. Fig 5C
T2 construct: A previously generated codon-optimized full-length DrOTOP1[8]; (UniProt: Q7ZWK8) construct; expressed in transfected cells; host or cells: HEK-293 (CRL-1573, ATCC)
T2 sequence (Q7ZWK8 1-586 G346F/I565W): T1 sequence (Q7ZWK8 1-586 G346F) with I565W
Description: as §1, §2, §3, §4

Which Inhibition of currents [1] does the source give for O=C(/C(=N\O)c1ccccc1)c1ccccc1 [C11, benzil monoxime] here?
The Inhibition of currents was “slightly reduced inhibition”.

And the “inhibition of acid-evoked current, mean (Mean of column R)” value [2]?
The value was 28.
